From article PMC3597608, “Yellow Fluorescent Protein-Based Assay to Measure GABAA Channel Activation and Allosteric Modulation in CHO-K1 Cells” (PLoS ONE, 2013)
Read-outs that look alike come from different tables or passages of the source.

Assays:
human GABAA α2β3γ2 = target: T1, human GABAA α2β3γ2 (Homo sapiens, UniProt P18507+P28472+P47869); assay: cell-based; format: cell-based
T1 construct: expressed in transfected cells; host or cells: CHO-K1 (ATCC, CCL-61), transient electroporation with MaxCyte STX, cryopreserved assay-ready cells
T1 sequence (P47869 29-451): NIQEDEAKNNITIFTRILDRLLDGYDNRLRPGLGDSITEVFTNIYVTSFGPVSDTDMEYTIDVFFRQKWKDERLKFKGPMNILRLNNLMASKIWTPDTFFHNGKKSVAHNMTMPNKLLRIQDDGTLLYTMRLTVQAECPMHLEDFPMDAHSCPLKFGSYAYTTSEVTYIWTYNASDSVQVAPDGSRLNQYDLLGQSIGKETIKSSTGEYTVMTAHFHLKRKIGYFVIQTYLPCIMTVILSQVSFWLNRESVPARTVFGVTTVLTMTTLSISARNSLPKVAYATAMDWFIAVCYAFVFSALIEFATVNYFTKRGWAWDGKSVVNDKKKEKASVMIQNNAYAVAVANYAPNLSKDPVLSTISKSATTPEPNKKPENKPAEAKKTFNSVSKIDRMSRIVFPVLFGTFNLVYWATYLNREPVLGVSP
T1 sequence (P28472 26-473): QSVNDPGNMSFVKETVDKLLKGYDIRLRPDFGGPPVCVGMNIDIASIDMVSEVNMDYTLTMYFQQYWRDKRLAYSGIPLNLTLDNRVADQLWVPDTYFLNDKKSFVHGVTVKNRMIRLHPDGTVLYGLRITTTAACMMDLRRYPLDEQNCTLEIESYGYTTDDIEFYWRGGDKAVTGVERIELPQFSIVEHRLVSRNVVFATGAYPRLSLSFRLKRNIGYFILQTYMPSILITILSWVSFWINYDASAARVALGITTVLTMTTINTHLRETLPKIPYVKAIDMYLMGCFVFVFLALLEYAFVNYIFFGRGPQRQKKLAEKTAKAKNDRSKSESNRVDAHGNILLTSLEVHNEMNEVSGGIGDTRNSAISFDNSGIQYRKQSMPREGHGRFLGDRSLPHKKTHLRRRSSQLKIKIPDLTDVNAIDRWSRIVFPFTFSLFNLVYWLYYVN
T1 sequence (P18507 40-467 isoform P18507-1 limits assumed): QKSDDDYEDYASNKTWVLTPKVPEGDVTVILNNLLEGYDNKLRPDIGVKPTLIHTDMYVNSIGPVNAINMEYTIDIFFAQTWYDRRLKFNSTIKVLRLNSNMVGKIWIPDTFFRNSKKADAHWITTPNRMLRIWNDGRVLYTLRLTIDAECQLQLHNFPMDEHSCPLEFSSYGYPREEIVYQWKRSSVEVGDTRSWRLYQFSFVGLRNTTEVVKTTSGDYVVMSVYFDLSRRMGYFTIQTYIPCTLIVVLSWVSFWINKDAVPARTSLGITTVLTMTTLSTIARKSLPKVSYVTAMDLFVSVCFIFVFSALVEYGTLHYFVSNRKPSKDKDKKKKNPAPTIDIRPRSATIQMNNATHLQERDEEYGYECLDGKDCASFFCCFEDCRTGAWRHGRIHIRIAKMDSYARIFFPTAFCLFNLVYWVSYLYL
Experimental: The cDNA of YFP (Genbank accession number AY818378) with H148Q and I152L mutations was inserted into the pcDNA3.1 vector using 5′ BamHI and 3′ NotI sites. Human GABAA subunits α2, β3 and γ2 (Genbank accession numbers; α2 NM_000807, β3 NM_000814, γ2 NM_000816) were inserted into pGen-IRES-neo2 vectors using NotI 5′ and 3′ sites.
CHO-K1 cell line (ATCC, CCL-61) was cultured in Ham's F-12 medium supplemented with 10% fetal bovine serum and incubated at 37°C and 5% CO2. Transient transfection was performed using MaxCyte STX electroporation instrument (MaxCyte, Inc.) with CHO cell line specific electroporation protocol. The cells were split one day prior to electroporation to ensure that cells were in the log phase growth at time of transfection. Cells were harvested with Accutase (PAA Laboratories), pelleted at 250 g for 10 minutes, rinsed with MaxCyte Electroporation Buffer (MaxCyte, Inc.), pelleted again and resuspended in MaxCyte Electroporation Buffer at a density of 1×10^8 cells/ml. CHO-K1 cells were electroporated simultaneously with four plasmids using a total amount of 300 µg DNA per 1×10^8 cells; YFP-H148Q/I152L (150 µg) and GABAA (72.5 µg α2, […] and 72.5 µg γ2) plasmids. Following electroporation, cells were incubated at 37°C and 5% CO2 for 20 minutes to recover. Cells were then diluted in culture medium and centrifuged 250 g for 10 minutes. Pelleted cells were resuspended to 5–10×10^6 cells/ml in Ham's F12 with 20% fetal bovine serum and 10% DMSO, and cryopreserved using controlled-rate cryo containers (Nalgene, Thermo Scientific). Cryopreserved assay-ready cells were used for all experiments.
Cryopreserved transiently transfected cells were thawed and plated in 384-well poly-D-lysine-coated plates at a density of 15000 cells/well using a Multidrop Combi Reagent Dispenser (Thermo Scientific). After 24 h incubation at 37°C and 5% CO2, cells were washed three times on an ELx405 Select Deep Well Microplate Washer (BioTEK), exchanging 50 µl culture medium with 30 µl HBSS buffer supplemented with 20 mM Hepes. Plates were incubated with buffer for 1 h at 37°C and 5% CO2. Cell plates were assayed on a FLIPR Tetra (Molecular Devices) using excitation filter of 470–495 nm and emission filter of 515–575 nm. Starting with 30 µl buffer in each well, cells were pre-incubated with 10 µl compound for 15 minutes. […] Compounds were initially solubilized to a concentration of 10 mM in DMSO and then diluted in HBSS buffer with 20 mM Hepes. Final DMSO concentration in the assay was 0.02% for modulators and at 1% for Picrotoxin and Bicuculline.
Data at 1–10 s was adjusted to a baseline of 100% and results were then extracted as % quench at 120 s. % quench is defined as (Finit – Ffinal)/Finit*100 where Finit and Ffinal are the initial and final values of fluorescence respectively. […] Curve fits were performed using least-squares fitting routine (GraphPad Prism 5, GraphPad Software Inc.).
The 95% confidence interval was calculated as 2× this standard error. Taking the anti-log converts this to a fold change (ratio) between two EC50 values.

[1] = test system: α2β3γ2 ion channel subtype; design: method as in PMID 19090692; settings: VSD assay; cited from earlier work
GABA α2β3γ2 = test system: GABA α2β3γ2; design: method as in PMID 14680756, PMID 16183706; settings: mouse fibroblast L(tk−) cells; cited from earlier work
[2] = 1 µM modulator, p<0.05, difference in pEC50 ≥0.15 significant

CCCN(CCC)C(=O)Cc1c(-c2ccc(Cl)cc2)nc2ccc(Cl)cn12 [Alpidem]
allosteric effect on GABA (human GABAA α2β3γ2; 1 µM modulator, 95% confidence): significant positive allosteric effect | Significance 95% confidence of pEC50 difference vs GABA alone (human GABAA α2β3γ2; [2]): Significant difference

CN1CCc2cc3c(cc2[C@H]1[C@@H]1OC(=O)c2c1ccc1c2OCO1)OCO3 [Bicuculline]
IC50 (human GABAA α2β3γ2): 2140 nM

CN1C(=O)CC(=O)N(c2ccccc2)c2cc(Cl)ccc21 [Clobazam]
allosteric effect on GABA (human GABAA α2β3γ2; 1 µM modulator, 95% confidence): significant positive allosteric effect | Significance 95% confidence of pEC50 difference vs GABA alone (human GABAA α2β3γ2; [2]): Significant difference

O=C1CC(=O)N(c2ccccc2)c2cc(Cl)ccc2N1 [Desmethyl-clobazam]
Significance 95% confidence of pEC50 difference vs GABA alone (human GABAA α2β3γ2; [2]): non-significant

CN1C(=O)CN=C(c2ccccc2)c2cc(Cl)ccc21 [Diazepam]
GABA EC50 shift (human GABAA α2β3γ2): 1.7 fold | Significance 95% confidence of pEC50 difference vs GABA alone (human GABAA α2β3γ2): Significant difference | allosteric effect on GABA (human GABAA α2β3γ2): significant positive allosteric effect | modulation of GABA EC20 quench (human GABAA α2β3γ2): significant increase | pEC50 difference (GABA with modulator vs GABA alone) [1]: 0.41

Cn1ncnc1COc1nn2c(-c3cc(F)ccc3F)nnc2cc1C(C)(C)C [L-838417]
allosteric effect on GABA (human GABAA α2β3γ2; 1 µM modulator, 95% confidence): not able to detect any significant allosteric modulation | Significance 95% confidence of pEC50 difference vs GABA alone (human GABAA α2β3γ2; [2]): non-significant | modulation of GABA signal [1]: detected modulation of GABA signal | relative in vitro efficacy, potentiation of GABA EC20 compared to 100% response from chlordiazepoxide (GABA α2β3γ2): 34%

O=C1Nc2ccc(Cl)cc2C(c2ccccc2Cl)=NC1O (centres unmarked) [Lorazepam]
allosteric effect on GABA (human GABAA α2β3γ2; 1 µM modulator, 95% confidence): significant positive allosteric effect | Significance 95% confidence of pEC50 difference vs GABA alone (human GABAA α2β3γ2; [2]): Significant difference

CCn1ncnc1COc1nn2c(-c3ccccc3F)nnc2cc1C(C)(C)C [TPA-023, 7-(1,1-dimethylethyl)-6-(2-ethyl-2H-1,2,4-triazol-3-ylmethoxy)-3-(2-fluorophenyl)-1,2,4-triazolo z[4,3-b]pyridazine]
allosteric effect on GABA (human GABAA α2β3γ2; 1 µM modulator, 95% confidence): not able to detect any significant allosteric modulation | Significance 95% confidence of pEC50 difference vs GABA alone (human GABAA α2β3γ2; [2]): non-significant | modulation of GABA EC20 quench (human GABAA α2β3γ2; EC20 of GABA with 1 µM modulator, 10 mM I−): No significant change | relative in vitro efficacy, potentiation of GABA EC20 compared to 100% response from chlordiazepoxide (GABA α2β3γ2): 11%

Picrotoxin
effect on basal (agonist-independent) YFP quench (human GABAA α2β3γ2; 100 µM, 15 min prior to buffer with different I− concentrations): reduced basal quench to background levels | effect on YFP quench in cells activated with EC80 of GABA (human GABAA α2β3γ2; 1 mM, EC80 of GABA in 10 mM NaI buffer): blocked YFP quench
